Experimental findings from patent publication US9562044B2, “2-acylaminothiazole derivative or salt thereof” (ASTELLAS PHARMA INC., priority 2013, dated 2017) are described below.

SMILES strings stand for the structures. Structures can show the parent of a compound that is named as a salt.

For one assay, the system named is isolated rat bladder. As to the kind of experiment: Transmural electrical field stimulation-induced contraction of isolated rat bladder. Particulars: AUC of contractile response, value before treatment = 100%, SD female rat bladder strip, read-out: Enhancement rate of isolated bladder contraction (% of pre). The method, then: Effects on Transmural Electrical Field Stimulation-Induced Contraction of Isolated Rat Bladder
As an effect on the nerve stimulation-dependent bladder contraction in vitro, the effect of the Example compound of the present invention in the transmural electrical field stimulation-induced contraction of isolated rat bladder was measured by the following method. That is, from the bladder isolated from a Spraque-Dawley (SD) female rat (Japan SLC, Inc.), a longitudinal bladder strip having a width of about 2 mm and a length of about 10 mm was prepared. The prepared bladder strip was suspended in an organ bath filled with 10 mL of a Krebs-Henseleit solution. The Krebs-Henseleit solution was bubbled with 95% O2 and 5% CO2, and kept at 37° C. After stabilization at an initial tension of 1 g, contraction was induced twice with 60 mM KCl. The strip was washed with the Krebs-Henseleit solution and stabilized, and then contraction was induced with transmural electrical field stimulation at 20 V (stimulation frequency of 8 Hz, pulse width of 0.3 msec, and stimulation time of 10 seconds) by an electrical stimulation device (Nihon Kohden Corporation). At an interval of 2 minutes, transmural electrical field stimulation was repeated and the voltage was adjusted to make the contractile amplitude about 50% of the contractile response by 20 V. After stabilization of the contraction by the transmural electrical field stimulation, 10 μL of the test substance (final concentrations of 3 μM, 10 μM, and 30 μM), which had been dissolved in 100% dimethylsulfoxide in advance was added. The test substance was cumulatively administered at the next concentration after the contractile response at a lower concentration had been stabilized. The responses were put into a personal computer through PowerLab (registered trademark) (AD Instruments), and analyzed with LabChart (registered trademark) (AD Instruments). The area under the response of each contractile response (area under curve, AUC) was calculated and the value before the treatment with the test substance was set to 100%. Based on this, the enhancement rate of the isolated bladder contraction (% of pre) after the treatment with the test substance was calculated.
The enhancement rates of the isolated bladder contraction due to several 10 μM Example compounds which are the compounds of the formula (I) are shown in Table 2.

The subject of assay [1] is intravesical pressure in anesthetized rats. In words: Pelvic nerve electrical stimulation-induced elevation of intravesical pressure in anesthetized rats. It counts as in vivo, rat. Particulars: 3 mg/kg intravenous; maximum effect during 1 hour after administration; pre-treatment AUC = 100%; SD female rats. On the procedure:
Effect on Pelvic Nerve Electrical Stimulation-Induced Elevation of Intravesical Pressure in Anesthetized Rats
As an effect on the nerve stimulation-dependent bladder contraction in vivo, the effect of the Example compound of the present invention in the pelvic nerve electrical stimulation-induced elevation of the intravesical pressure in rats was measured by the following method. That is, using SD female rats (Japan SLC, Inc.), the lower abdomen was incised in the midline under anesthesia with pentobarbital (50 mg/kg ip). The ureter on both sides was ligated and cut, and then a cannula for measuring the intravesical pressure (PE-50) was inserted into the bladder from the external urethral orifice and fixed by a clip. About 200 μL of physiological saline was injected through the cannula inserted into the bladder, the other side was then connected to a pressure transducer, and the intravesical pressure was measured. Under observation using a stereomicroscope, the pelvic nerve near the bladder was isolated and an electrode (Unique Medical) for nerve stimulation was placed. The abdominal cavity was filled with mineral oil (MP BIOMEDICALS). […] After the elevation of the intravesical pressure by electrical stimulation was stabilized three times or more, the test substance (dose of 3 mg/kg) was administered at a volume of 1 mL/kg from a catheter placed in the vein and the effect of the test substance on the elevation of the intravesical pressure was measured for 1 hour. […]
The responses were put into a personal computer through PowerLab (registered trademark) (AD Instruments), and analyzed with LabChart (registered trademark). The AUC of each elevation of the intravesical pressure was calculated. The average value of three values before the treatment with the test substance was set to 100%, and the elevation rate of the intravesical pressure (% of pre) after the treatment with the test substance was calculated. […]

For `C[C@@H]1CCCN1Cc1sc(NC(=O)c2cnc(N3CCC(C(=O)O)CC3)cn2)nc1-c1cc(Cl)cs1` [Example 4, 1-(5-{[4-(4-chloro-2-thienyl)-5-{[(2R)-2-methylpyrrolidin-1-yl]methyl}-1,3-thiazol-2-yl]carbamoyl}pyrazin-2-yl)piperidine-4-carboxylic acid dihydrochloride], the activity at 10 µM with isolated rat bladder came to 180%. Moreover, the “Elevation rate of intravesical pressure (% of pre)” value (“Elevation rate … (% of pre)” for short) in assay [1] is 184 % of pre.

Turning to `CC[C@@H]1CCCN1Cc1sc(NC(=O)c2cnc(N3CCC(C(=O)O)CC3)cn2)nc1-c1cc(F)cc(C(F)(F)F)c1` [Example 115], in the assay on isolated rat bladder, the activity at 10 µM turned out to be 121%. For the same compound, the “Elevation rate … (% of pre)” value in assay [1] is 131 % of pre.

With `CC[C@@H]1CCCN1Cc1sc(NC(=O)c2cnc(N3CCC(C(=O)O)CC3)cn2)nc1-c1ccc(OC)c(C(F)(F)F)c1` [Example 156], in the assay with isolated rat bladder, the activity at 10 µM was determined as 135%. Besides, in assay [1], the “Elevation rate … (% of pre)” value is 130 % of pre.
